Results from patent US9943525B2, “Composition for reducing cell senescence comprising Rho-kinase inhibitor and use thereof” (Samsung Electronics Co., Ltd., priority 2014, dated 2018).

What was measured:
[1] = test system: senescent fibroblasts (after 38 cell passages); assay: DNA comet assay; format: cell-based, human; conditions: 4 weeks, vs control, p<0.01, FIG. 12
Description: The degrees of restoration of DNA damage in senescent cells by the Rho-kinase inhibitors were identified by a DNA comet assay. This method is performed by detecting DNA fractions cleaved by ultraviolet (UV) irradiation. This method is based on gel electrophoresis. During gel electrophoresis, damaged DNA migrates farther than normal DNA forming a tail like a comet-tail. Then, a slide was stained with SYBR Green, and the length of a tail of a DNA fraction was measured using a fluorescence microscope to identify the degree of DNA damage.
FIG. 12 is a graph displaying degrees of DNA damage in fibroblasts (after 38 cell passages) cultured in the presence of Rho-kinase inhibitors Y-27632 (5 μM), Fasudil (5 μM), and SR3677 (0.5 μM) measured by a DNA comet assay indicating the degree of DNA damage. In FIG. 12, senescent cells (after 38 cell passages) were cultured in culture media supplemented with 5 μM of Y-27632, 5 μM of FASUDIL, and 0.5 μM of SR3677 for 4 weeks in a 5% CO2 incubator at 37° C. The culture media were changed at every 4 days with new culture media supplemented with 5 μM of Y-27632, 5 μM of FASUDIL, and 0.5 μM of SR3677. Also, negative control groups were prepared in the same manner as described above, except that one negative control group was prepared with no treatment and another was treated with 0.05 (v/v) % of DMSO. Cells having undergone 17 passages and having a cell doubling time of 4 to 5 days were used as young cells. […] Thus, it was confirmed that the degree of DNA damage increases in senescent cells. In the Comet assay, the Tail Moment is defined as multiplication of a length of the tail by a total DNA fraction contained in the tail. That is, the Tail Moment is a length of the tail migrated during gel electrophoresis. As the length of the tail decreases, the degree of DNA damage decreases. […] In FIG. 12, ** indicates statistically significant (p<0.01). In FIG. 12, the “Fibroblast p17” and “Fibroblast p38” refer to fibroblasts that were subcultured for 17 passages and fibroblasts subcultured for 38 passages, respectively.

[2] = test system: senescent progeric fibroblasts (cell passage 17); assay: microscopic observation of cell number and shape; format: cell-based, human; conditions: 4 weeks, FIG. 17; for numbers of cells: vs DMSO
Description: Progeric fibroblasts (Hutchinson-Gilford Progeria Syndrome Skin Fibroblasts, Coriell Cell Repositories, AG03198 B) were cultured in Dulbecco's Modified Eagle's Media (DMEM) supplemented with 10% fetal bovine serpm (FBS) and 100 unit/ml of penicillin, and 100 μg/ml of streptomycin (two antibiotics are purchased from Gibro-BRL and Grand Island, N.Y.) in a 5% CO2 incubator at 37° C. Subculturing was initiated when the cells were approximately 85% confluent in plates. Early subcultures were performed at a split ratio of 1:4, and later subcultures were performed at a split ratio of 1:2. When cell doubling time was 14 days, the cells were regarded as senescent progeric fibroblasts (cell passages 16 to 17).
The senescent progeric fibroblasts (cell passage 17) were seeded on each well of a 6-well plate in a concentration of 2,000 cells/well and cultured in the presence of 5 μM of Y-27632, 5 μM of FASUDIL, and 0.5 μM of SR3677 for 4 weeks in a 5% CO2 incubator at 37° C. The culture media were changed at every 4 days with new culture media supplemented with 5 μM of Y-27632, 5 μM of FASUDIL, and 0.5 μM of SR3677. A negative control group was prepared in the same manner, except that 0.05 (v/v) % of DMSO was used.
FIG. 17 illustrates microscopic images of cells cultured in the presence of 5 μM of Y-27632, 5 μM of FASUDIL, and 0.5 μM of SR3677. In “a” of FIG. 17, a portion was selected, marked by a rectangle with a dashed line, and enlarged in a1 for closer examination of the cultured cells. In a1 of FIG. 17, a portion of a1 was selected, marked by a rectangle with a dashed line, and enlarged in a2 for much closer examination of the cultured cells (Scale bar 20 um).

[3] = test system: senescent myoblasts (11 cell passages); assay: lipofuscin autofluorescence by flow cytometry; format: cell-based, Human; conditions: 4 weeks, vs control, p<0.05, FIG. 14
Description: Myoblast cell lines (Human Skeletal Muscle Myoblasts, Lonza CC-2580 LOT:0000387550) were cultured in SkBM™-2 Basal Media (Lonza CC-3246) including an SkGM™-2 SingleQuots™ Kit (Lonza CC-3244) on plates coated with Collagen Type I (Greiner Bio One, 658950) in a 5% CO2 incubator at 37° C. Subculture was initiated when the cells were approximately 85% confluent in plates. Early subcultures were performed at a split ratio of 1:4, and later subcultures were performed at a split ratio of 1:2. When cell doubling time was 14 days, the cells were regarded as senescent myoblasts (cell passages 10 to 12).
In addition, amounts of lipofuscin accumulated in the cultured cells were measured. Senescent myoblasts (11 cell passages) were cultured in the presence of 5 μM of Y-27632, 5 μM of FASUDIL, and 0.5 μM of SR3677 for 4 weeks in a 5% CO2 incubator at 37° C. The culture media were changed at every 4 days with new culture media supplemented with 5 μM of Y-27632, 5 μM of FASUDIL, and 0.5 μM of SR3677. Since lipofuscin has autofluorescence characteristics, light having a wavelength of 488 nm was irradiated to the cells by using a FACSCaliber (Beckton Dickinson) and light emission at 520 nm was measured. The results were analyzed using Cell Quest 3.2 software (Beckton Dickinson). FIG. 14 is a graph displaying amounts of lipofuscin in myoblasts (11 cell passages) cultured in the presence of Rho-kinase inhibitors Y-27632 (5 μM), Fasudil (5 μM), and SR3677 (0.5 μM). […] In FIG. 14, * indicates statistically significant (p<0.05).

Structure (SMILES): O=S(=O)(c1cccc2cnccc12)N1CCCNCC1 [FASUDIL, 5-(1,4-diazepane-1-sulfonyl)isoquinoline]
- DNA damage (Tail Moment) ([1]; 5 μM): considerably restored
- cell shape ([2]; 5 μM): spindle shape generally found in young cells
- numbers of cells ([2]; 5 μM): greater than that of the control group
- amounts of lipofuscin ([3]; 5 μM): significantly reduced

Structure (SMILES): CN(C)CCOc1cc(-c2cn[nH]c2)ccc1NC(=O)C1COc2ccccc2O1 (stereo not drawn) [SR3677]
- DNA damage (Tail Moment) ([1]; 0.5 μM): considerably restored
- cell shape ([2]; 0.5 μM): spindle shape generally found in young cells
- numbers of cells ([2]; 0.5 μM): greater than that of the control group
- amounts of lipofuscin ([3]; 0.5 μM): significantly reduced

Structure (SMILES): C[C@@H](N)[C@H]1CC[C@H](C(=O)Nc2ccncc2)CC1 [Y-27632, (1R,4R)-4-((R)-1-aminoethyl)-N-(pyridin-4-yl)cyclohexanecarboxamide]
- DNA damage (Tail Moment) ([1]; 5 μM): considerably restored
- cell shape ([2]; 5 μM): spindle shape generally found in young cells
- numbers of cells ([2]; 5 μM): greater than that of the control group
- amounts of lipofuscin ([3]; 5 μM): significantly reduced
